Measurements from paper PMC11284788, “NN1213 – A Potent, Long-Acting, and Selective Analog of Human Amylin” (Journal of Medicinal Chemistry, 2024).
Like-named read-outs stand apart in the source and are kept apart here. Numbered stars: 1 amine (or outer) side, 2 acyl side, 3 side chain; on linkers, the order of the positions; unused ones are H or OH. Bridge positions count the residues as written; N and C are the ends. Side chains are listed from the residue outwards. Peptide text beside a SMILES is read from it. * marks the point of attachment. C20 diacid = O=C(O)CCCCCCCCCCCCCCCCCCC(=O)*; γGlu = O=C(O)[C@H](CCC(=O)[*:2])N[*:1]

How the values were obtained:
cCTR = test: Species-specific cAMP assay, cCTR; settings: cAMP HTRF, transiently transfected BHK cells, 30 min room temperature, five experiments
cAMY3R = test: Species-specific cAMP assay, cAMY3R; settings: cAMP HTRF, transiently transfected BHK cells, 30 min room temperature, five experiments
cAMY1R = test: Species-specific cAMP assay, cAMY1R; settings: cAMP HTRF, transiently transfected BHK cells, 30 min room temperature, five experiments
[1] = ThT assay: fibril formation propensity and peptide recovery; type: physicochemical
Protocol: The stability properties of the individual amylin analogs were assessed with respect to their propensity toward fibril formation, expressed as the time until fibril formation (measured as Lag time) and loss of dissolved peptide (assessed as Peptide Recovery). […] Samples were prepared as described previously (using the same methodology and materials) for a novel amylin-based analog candidate compound.[7]
Briefly, each compound was dissolved in 10 mM of glycylglycine buffer (pH 4.0) or HEPES buffer (pH 7.5) to a concentration of 250 μM, followed by ThT stock solution to a final concentration of 1 μM. Each solution was aliquoted into a microtiter plate (200 μL/well) sealed with a transparent adhesive sheet. Mechanical stress was applied at 37 °C incubation (960 rpm, 1 mm amplitude) with 20 min fluorescence reading intervals for 45 h (filters: excitation 444 nm; emission 485 nm). Each peptide was tested in experiments consisting of four replicas (e.g., four wells on the same plate), and the lag time of each replica was determined by visual inspection of the fluorescence-versus-time plot. For wells where no fibril formation could be detected, the lag time was set longer than the test period (>45 h). The lag time of the peptide was set to the lowest lag time of the four replicates (conservative estimate). Some of the peptides were tested in more than one experiment, and the lag time results given in Tables 6 and 9 represent the average of these experiments. The ThT time course data given in Supporting Information represent the average and SEM of each experiment.[40] After analysis, wells representing individual replicas were pooled, and the residual soluble peptide was isolated using centrifugation (20,000 g/30 min at room temperature) followed by […] filtration. The amount of residual dissolved peptide was determined using an HPLC with a flow rate of 2 mL/min at 30 °C and 215/276 nm detection. A gradient combining eluent A (7.7% w/w acetonitrile, 200 mM Na2SO4, 20 mM NaH2PO4, 20 mM Na2HPO4, pH 7.2) and eluent B (65.5% w/w acetonitrile) was applied. The amount of residual dissolved peptide was reported on a relative scale (Peptide Recovery) to the amount of dissolved peptide prior to mechanical stress.

hCTR = target: T1, hCTR (Homo sapiens, UniProt P30988); test: cAMP-responsive element luciferase reporter assay, human CTR; type: cell-based; settings: luciferase (human receptor assay)
T1 sequence (P30988 25-474): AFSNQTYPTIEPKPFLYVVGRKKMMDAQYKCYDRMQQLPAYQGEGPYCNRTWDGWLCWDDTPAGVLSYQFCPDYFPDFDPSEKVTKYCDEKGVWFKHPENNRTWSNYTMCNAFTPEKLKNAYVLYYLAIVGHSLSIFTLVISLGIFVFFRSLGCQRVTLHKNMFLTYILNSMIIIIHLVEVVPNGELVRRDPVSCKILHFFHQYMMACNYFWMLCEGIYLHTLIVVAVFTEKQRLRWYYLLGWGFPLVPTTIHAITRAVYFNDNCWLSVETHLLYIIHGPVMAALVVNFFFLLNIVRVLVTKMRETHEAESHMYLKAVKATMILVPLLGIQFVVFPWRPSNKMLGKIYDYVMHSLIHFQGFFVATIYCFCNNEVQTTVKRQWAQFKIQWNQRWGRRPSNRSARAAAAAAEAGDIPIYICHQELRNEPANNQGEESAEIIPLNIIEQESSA

rat CTR = target: T2, rat CTR (Rattus norvegicus, UniProt P32214); test: cAMP FlashPlate assay, rat CTR; type: cell-based; settings: cAMP (rat receptor assay)
T2 construct: expressed in transfected cells; host or cells: BHK tk-ts 13, transient (FuGENE 6)
T2 sequence (P32214 25-479 isoform P32214-2 limits assumed): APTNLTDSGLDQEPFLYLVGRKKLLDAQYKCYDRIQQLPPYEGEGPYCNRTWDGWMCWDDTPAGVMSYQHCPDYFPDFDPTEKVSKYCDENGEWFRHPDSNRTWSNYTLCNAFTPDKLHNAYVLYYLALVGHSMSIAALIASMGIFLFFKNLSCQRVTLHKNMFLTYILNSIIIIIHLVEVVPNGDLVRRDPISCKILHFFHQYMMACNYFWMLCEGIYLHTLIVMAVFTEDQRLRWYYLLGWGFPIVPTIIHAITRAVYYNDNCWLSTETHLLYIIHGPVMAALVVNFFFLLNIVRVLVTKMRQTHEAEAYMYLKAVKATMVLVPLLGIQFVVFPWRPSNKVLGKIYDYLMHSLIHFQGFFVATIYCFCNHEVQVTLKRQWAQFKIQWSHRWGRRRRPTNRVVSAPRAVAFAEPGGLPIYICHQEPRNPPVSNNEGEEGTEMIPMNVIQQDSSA

rat AMY3R = target: T3, rat AMY3R (Rattus norvegicus, UniProt P32214+Q9JJ73); test: cAMP FlashPlate assay, rat AMY3R; type: cell-based; settings: for EC50: cAMP (rat receptor assay)
T3 construct: expressed in transfected cells; host or cells: BHK tk-ts 13, transient co-transfection (FuGENE 6)
T3 sequence (P32214 25-479 isoform P32214-2 limits assumed): T2 sequence (P32214 25-479 isoform P32214-2 limits assumed)
T3 sequence (Q9JJ73 23-147 partner): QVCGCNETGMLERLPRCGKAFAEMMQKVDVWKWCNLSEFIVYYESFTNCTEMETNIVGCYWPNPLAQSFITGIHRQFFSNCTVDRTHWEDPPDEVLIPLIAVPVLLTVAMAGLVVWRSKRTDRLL

hAMY3R = target: T4, hAMY3R (Homo sapiens, UniProt O60896+P30988); test: cAMP-responsive element luciferase reporter assay, human AMY3R; type: cell-based; set-up: expressed in transfected cells; settings: for EC50: luciferase (human receptor assay)
T4 sequence (P30988 25-474): T1 sequence (P30988 25-474)
T4 sequence (O60896 24-148 partner): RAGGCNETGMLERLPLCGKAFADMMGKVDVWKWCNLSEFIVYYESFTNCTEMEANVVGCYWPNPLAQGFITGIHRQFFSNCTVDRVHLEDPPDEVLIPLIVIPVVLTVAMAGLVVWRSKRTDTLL

[2] = HMWP content by size-exclusion chromatography; type: physicochemical; settings: analogs 1–9 (pH 7.5 series); covalent dimers and polymers prior to fibril formation testing, SEC, % of total absorbance area at 215 nm
Protocol: The stability properties of the individual amylin analogs were assessed with respect to their propensity toward amyloid fibril formation. The relative amount of covalent dimers and polymers (HMWP) present prior to fibril formation testing was measured as a control for the potential inhibitory effect of HMWP on fibril formation propensity as reported elsewhere.[39]
Elution was performed under isocratic conditions with the following mobile phase prepared in Milli-Q water (Millipore A/S): 0.5 M NaCl, 10 mM sodium dihydrogen monohydrate, 5 mM ortho-phosphoric acid, 50% (v/v) 2-propanol. The amount of HMWP was determined as the absorbance area of the corresponding peaks given in percentage of the total absorbance area. The molar extinction coefficients of the molecules eluting in the HMWP fraction and the main peak was assumed to be equal.

[3] = Solubility versus pH profile
rats = settings: cited from earlier work
Source text: SEM is the standard error of the mean. || From the daily consumption of food observed in the DIO rats, the steep decrease around day 2 is a typical pattern observed with appetite-reducing agents in rodents.[31]

[4] = single sc injection of 30 nmol/kg, published previously

SMILES: CC(C)C[C@H](NC(=O)[C@H](CCCCN)NC(=O)CNC(=O)[C@H](CC(C)C)NC(=O)[C@@H](NC(=O)[C@@H]1CSSC[C@H](N)C(=O)N[C@@H](CO)C(=O)N[C@@H](CC(N)=O)C(=O)N[C@@H](CC(C)C)C(=O)N[C@@H](CO)C(=O)N[C@@H]([C@@H](C)O)C(=O)N1)C(C)C)C(=O)N[C@@H](CO)C(=O)N[C@@H](CCC(N)=O)C(=O)N[C@@H](CCC(=O)O)C(=O)N[C@@H](CC(C)C)C(=O)N[C@@H](Cc1c[nH]cn1)C(=O)N[C@@H](CCCCN)C(=O)N[C@@H](CC(C)C)C(=O)N[C@@H](CCC(N)=O)C(=O)N[C@H](C(=O)N[C@@H](Cc1ccc(O)cc1)C(=O)N1CCC[C@H]1C(=O)N[C@@H](CCCNC(=N)N)C(=O)N[C@H](C(=O)N[C@@H](CC(N)=O)C(=O)N[C@H](C(=O)NCC(=O)N[C@@H](CO)C(=O)NCC(=O)N[C@H](C(=O)N1CCC[C@H]1C(N)=O)[C@@H](C)O)[C@@H](C)O)[C@@H](C)O)[C@@H](C)O [sCT, salmon calcitonin, reference compound]
- cCTR pEC50 (cCTR): 11.27
- cAMY3R pEC50 (cAMY3R): 11.16
- cAMY1R pEC50 (cAMY1R): 10.61

SMILES: CC(C)C[C@H](NC(=O)[C@H](CCCNC(=N)N)NC(=O)[C@H](CCC(N)=O)NC(=O)[C@@H](NC(=O)[C@H](C)NC(=O)[C@@H]1CSSC[C@H](NC(=O)[C@@H](N)CCCCNC(=O)CC[C@H](NC(=O)CCCCCCCCCCCCCCCCCCC(=O)O)C(=O)O)C(=O)N[C@@H](CC(N)=O)C(=O)N[C@@H]([C@@H](C)O)C(=O)N[C@@H](C)C(=O)N[C@@H]([C@@H](C)O)C(=O)N1)[C@@H](C)O)C(=O)N[C@@H](C)C(=O)N[C@@H](CC(=O)O)C(=O)N[C@@H](Cc1ccccc1)C(=O)N[C@@H](CC(C)C)C(=O)N[C@@H](CCCNC(=N)N)C(=O)N[C@@H](Cc1c[nH]cn1)C(=O)N[C@@H](CO)C(=O)N[C@@H](CO)C(=O)N[C@@H](CCC(N)=O)C(=O)N[C@@H](CC(N)=O)C(=O)N[C@@H](Cc1ccccc1)C(=O)NCC(=O)N[C@@H](C)C(=O)N1CCC[C@H]1C(=O)N[C@@H](CC(C)C)C(=O)N[C@@H](CO)C(=O)N[C@@H](CO)C(=O)N[C@H](C(=O)N1CCC[C@H]1C(=O)N[C@H](C(=O)NCC(=O)N[C@@H](CO)C(=O)N[C@@H](CC(=O)O)C(=O)N[C@H](C(=O)N[C@@H](Cc1ccc(O)cc1)C(N)=O)[C@@H](C)O)C(C)C)[C@@H](C)O [Peptide 1] (H-K([γGlu-C20 diacid])CNTATCATQRLADFLRHSSQNFGAPLSSTPVGSDTY-NH2; disulfide 2-7)
- ThT, pH 7.5 lag-time ([1]; 250 μM peptide, 10 mM HEPES pH 7.5, 1 μM ThT, 37 °C, 960 rpm, 45 h, lowest of four replicas, average of experiments): >45 h
- recovery ([1]; pH 7.5, residual dissolved peptide after 45 h of shaking, centrifugation and 0.22 μm filtration, HPLC, relative to amount before stress): 100%
- EC50 (hCTR; Tables S12 and S14, read-out: hCTR pEC50 (converted)): 0.692 nM
- EC50 (hCTR; BHK cells stably expressing hCTR and CRE-luciferase, 3 h, 37 °C, 10% FBS, read-out: hCTR EC50): 0.697 nM
- EC50 (rat CTR; Tables S12 and S14, read-out: rCTR pEC50 (converted)): 14.5 nM
- EC50 (rat CTR; transiently transfected BHK tk-ts 13 cells, FlashPlate, 30 min room temperature, 2% HSA, read-out: rCTR EC50): 14.3 nM
- EC50 (rat AMY3R; Tables S12 and S14, read-out: rAMY3R pEC50 (converted)): 0.468 nM
- EC50 (rat AMY3R; transiently transfected BHK tk-ts 13 cells, FlashPlate, 30 min room temperature, 2% HSA, read-out: rAMY3R EC50): 0.463 nM
- ratio rCTR/rAMY3R (rat AMY3R; ratio of cAMP EC50 values): 31
- EC50 (hAMY3R; Tables S12 and S14, read-out: hAMY3R pEC50 (converted)): 0.182 nM
- EC50 (hAMY3R; BHK cells stably expressing hCTR+RAMP3 and CRE-luciferase, 3 h, 37 °C, 10% FBS, read-out: hAMY3R EC50): 0.18 nM
- ratio hCTR/hAMY3R (hAMY3R; ratio of luciferase EC50 values): 3.9
- HMWP [2]: 7%
- solubility kinetic ([3]; bis-tris-propane buffer, pH 6, aqueous buffer): ≥ 200 µM
- solubility kinetic ([3]; bis-tris-propane buffer, pH 6.5, aqueous buffer): ≥ 200 µM
- solubility kinetic ([3]; bis-tris-propane buffer, pH 7, aqueous buffer): ≥ 200 µM
- solubility kinetic ([3]; bis-tris-propane buffer, pH 7.5, aqueous buffer): ≥ 200 µM
- solubility kinetic ([3]; bis-tris-propane buffer, pH 8, aqueous buffer): ≥ 200 µM
- solubility kinetic ([3]; lactate buffer, pH 4, aqueous buffer): ≥ 200 µM
- solubility kinetic ([3]; lactate buffer, pH 5, aqueous buffer): ≥ 200 µM

SMILES: CC[C@H](C)[C@H](NC(=O)[C@@H]1CCCN1C(=O)CNC(=O)[C@H](Cc1ccccc1)NC(=O)[C@H](CC(N)=O)NC(=O)[C@H](CC(N)=O)NC(=O)[C@H](CO)NC(=O)[C@H](CO)NC(=O)[C@H](Cc1c[nH]cn1)NC(=O)[C@H](CCCNC(=N)N)NC(=O)[C@H](CC(C)C)NC(=O)[C@H](Cc1ccccc1)NC(=O)[C@H](CCC(=O)O)NC(=O)[C@H](C)NC(=O)[C@H](CC(C)C)NC(=O)[C@H](CCCNC(=N)N)NC(=O)[C@H](CCC(N)=O)NC(=O)[C@@H](NC(=O)[C@H](C)NC(=O)[C@@H]1CSSC[C@H](NC(=O)[C@H](CCCCN)NC(=O)CC[C@H](NC(=O)CCCCCCCCCCCCCCCCCCC(=O)O)C(=O)O)C(=O)N[C@@H](CC(N)=O)C(=O)N[C@@H]([C@@H](C)O)C(=O)N[C@@H](C)C(=O)N[C@@H]([C@@H](C)O)C(=O)N1)[C@@H](C)O)C(=O)N[C@@H](CC(C)C)C(=O)N1CCC[C@H]1C(=O)N1CCC[C@H]1C(=O)N[C@H](C(=O)N[C@@H](CC(N)=O)C(=O)N[C@H](C(=O)NCC(=O)N[C@@H](CO)C(=O)N[C@@H](CC(N)=O)C(=O)N[C@H](C(=O)N1CCC[C@H]1C(N)=O)[C@@H](C)O)C(C)C)[C@@H](C)O [cagrilintide]
- reduction in food intake in rats (rats): 45%
- reduction of food intake 0−24 h (rats; [4]): 85%
- reduction of food intake 24–48 h (rats; [4]): 84%
